Measurements taken from patent publication US20230339886A1 (University of Florida Research Foundation, Incorporated, priority 2020, published 2023).

target: T1, REV-ERBα LBD (human; residues 281-614 Δ324-422) (Homo sapiens, UniProt P20393, DEL324-422); experiment: TR-FRET corepressor interaction assay (REV-ERBα LBD, FITC-SMRT peptide); assay type: biochemical; settings: Table 2, read-out: REVERBα agonism (EC50 class, FRET assay)
T1 construct: 6×Histag-REV-ERBα LBD (human; residues 281-614 Δ324-422); made in house; host or cells: Escherichia coli
In short: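 Compound serial dilutions (in DMSO, triplicate) incubated 2 h at 4 °C; Tb donor excited at 340 nm, emission read at 495 nm and FITC acceptor at 520 nm. TR-FRET ratio (520/495 nm) plotted against ligand concentration and fitted to a sigmoidal dose-response curve.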

T1 sequence (P20393 with tags, fused parts or gaps DEL324-422): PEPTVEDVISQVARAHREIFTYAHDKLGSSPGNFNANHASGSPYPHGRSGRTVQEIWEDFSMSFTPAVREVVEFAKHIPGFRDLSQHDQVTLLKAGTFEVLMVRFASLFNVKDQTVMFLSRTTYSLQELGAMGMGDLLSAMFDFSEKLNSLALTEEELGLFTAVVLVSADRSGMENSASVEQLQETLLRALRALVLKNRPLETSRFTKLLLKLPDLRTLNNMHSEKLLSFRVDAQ
T1 sequence (Q9Y618 2335-2356 partner limits assumed): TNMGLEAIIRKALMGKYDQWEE

| SMILES | EC50 [µM] |
| --- | --- |
| CC(C)S(=O)(=O)n1cc(CCNS(=O)(=O)N(C)C)c2ccc(-c3ccncc3)cc21 [Example 130, N′-{2-[6-(pyridin-4-yl)-1-isopropylsulfonyl-1H-indol-3-yl]ethyl}-N,N-dimethylsulfuric diamide] | > 3 |
| CCn1cc(CCNS(=O)(=O)N(C)C)c2ccc(-c3ccncc3)cc21 [Example 132, N′-{2-[6-(pyridin-4-yl)-1-ethyl-1H-indol-3-yl]ethyl}-N,N-dimethylsulfuric diamide] | > 3 |
| CN(C)S(=O)(=O)NCCc1cn(C2CC2)c2cc(-c3ccncc3)ccc12 [Example 134, N′-{2-[6-(pyridin-4-yl)-1-cyclopropyl-1H-indol-3-yl]ethyl}-N,N-dimethylsulfuric diamide] | > 3 |
| CN(C)S(=O)(=O)NCCc1cn(Cc2ccccc2Br)c2cc(-c3ccncc3)ccc12 [Example 140, N′-{2-[6-(pyridin-4-yl)-1-(2-bromobenzyl)-1H-indol-3-yl]ethyl}-N,N-dimethylsulfuric diamide] | > 3 |
| CN(C)S(=O)(=O)NCCc1cn(Cc2cccc(I)c2)c2cc(-c3ccncc3)ccc12 [Example 145, N-{2-[6-(pyridin-4-yl)-1-(3-iodobenzyl)-1H-indol-3-yl]ethyl}-N,N-dimethylsulfuric diamide] | > 3 |
| CN(C)S(=O)(=O)NCCc1cn(Cc2ccc(F)cc2F)c2cc(-c3ccncc3)ccc12 [Example 149, N-{2-[6-(pyridin-4-yl)-1-(2,4-difluorobenzyl)-1H-indol-3-yl]ethyl}-N,N-dimethylsulfuric diamide] | 0.5 to 3 |
| CN(C)S(=O)(=O)NCCc1cn(Cc2ccccc2F)c2cc(-c3ccncc3)ccc12 [Example 150, N-{2-[6-(pyridin-4-yl)-1-(2-fluorobenzyl)-1H-indol-3-yl]ethyl}-N,N-dimethylsulfuric diamide] | 0.5 to 3 |
| CN(C)S(=O)(=O)NCCc1cn(C(=O)c2cc(Cl)cc(Cl)c2)c2cc(-c3ccncc3)ccc12 [Example 151, N′-{2-[6-(pyridin-4-yl)-1-(3,5-dichlorobenzoyl)-1H-indol-3-yl]ethyl}-N,N-dimethylsulfuric diamide] | > 3 |
| CN(C)S(=O)(=O)NCCn1cc(CC(F)(F)F)c2cc(Cl)ccc21 [Example 152, N-{2-[5-chloro-3-(2,2,2-trifluoroethyl)-1H-indol-1-yl]ethyl}-N,N-dimethylsulfuric diamide] | 0.5 to 3 |
| CN(C)S(=O)(=O)NCCn1cc(CC(F)(F)C(F)(F)F)c2cc(Cl)ccc21 [Example 153, N-{2-[5-chloro-3-(2,2,3,3,3-pentafluoropropyl)-1H-indol-1-yl]ethyl}-N,N-dimethylsulfuric diamide] | 0.5 to 3 |
| CN(C)S(=O)(=O)NCCc1cn(CCc2ccccc2)c2cc(-c3ccncc3)ccc12 [Example 154, N′-{2-[6-(pyridin-4-yl)-1-phenethyl-1H-indol-3-yl]ethyl}-N,N-dimethylsulfuric diamide] | 0.5 to 3 |
| CN(C)S(=O)(=O)NCCc1cn(CC(F)(F)F)c2cc(Br)ccc12 [Example 158, ({2-[6-bromo-1-(2,2,2-trifluoroethyl)-1H-indol-3-yl]ethyl}sulfamoyl)dimethylamine] | 0.5 to 3 |
| CC(c1ccccc1)n1cc(CCNS(=O)(=O)N(C)C)c2ccc(Br)cc21 (centres unmarked) [Example 159, ({2-[6-bromo-1-(1-phenylethyl)-1H-indol-3-yl]ethyl}sulfamoyl)dimethylamine] | 0.5 to 3 |
| CN(C)CCn1cc(CCNS(=O)(=O)N(C)C)c2ccc(Br)cc21 [Example 160, [2-(6-bromo-3-{2-[(dimethylsulfamoyl)amino]ethyl}-1H-indol-1-yl)ethyl]dimethylamine] | > 3 |
| CN(C)S(=O)(=O)NCCc1cn(Cc2ccccn2)c2cc(Br)ccc12 [Example 161, [(2-{6-bromo-1-[(pyridin-2-yl)methyl]-1H-indol-3-yl}ethyl)sulfamoyl]dimethylamine] | 0.5 to 3 |
| CN(C)S(=O)(=O)NCCc1cn(Cc2ccncc2)c2cc(Br)ccc12 [Example 162, [(2-{6-bromo-1-[(pyridin-4-yl)methyl]-1H-indol-3-yl}ethyl)sulfamoyl]dimethylamine] | 0.5 to 3 |
| CN(C)S(=O)(=O)NCCc1cn(Cc2cccnc2)c2cc(Br)ccc12 [Example 163, [(2-{6-bromo-1-[(pyridin-3-yl)methyl]-1H-indol-3-yl}ethyl)sulfamoyl]dimethylamine] | 0.5 to 3 |
| COC(=O)Cn1cc(CCNS(=O)(=O)N(C)C)c2ccc(Br)cc21 [Example 164, methyl 2-(6-bromo-3-(2-((N,N-dimethylsulfamoyl)amino)ethyl)-1H-indol-1-yl)acetate] | > 3 |
| CN(C)S(=O)(=O)NCCc1cn(CC(C)(C)C)c2cc(Br)ccc12 [Example 165, ({2-[6-bromo-1-(2,2-dimethylpropyl)-1H-indol-3-yl]ethyl}sulfamoyl)dimethylamine] | 0.5 to 3 |
| CNC(=O)Cn1cc(CCNS(=O)(=O)N(C)C)c2ccc(Br)cc21 [Example 166, 2-(6-bromo-3-(2-((N,N-dimethylsulfamoyl)amino)ethyl)-1H-indol-1-yl)-N-methylacetamide] | 0.5 to 3 |
| CN(C)C(=O)Cn1cc(CCNS(=O)(=O)N(C)C)c2ccc(Br)cc21 [Example 167, 2-(6-bromo-3-(2-((N,N-dimethylsulfamoyl)amino)ethyl)-1H-indol-1-yl)-N,N-dimethylacetamide] | 0.5 to 3 |
| Cc1cccc2c(CCNS(=O)(=O)N(C)C)cn(CC(C)C)c12 [Example 169, dimethyl({2-[7-methyl-1-(2-methylpropyl)-1H-indol-3-yl]ethyl}sulfamoyl)amine] | 0.5 to 3 |

Results, then the molecule that gave them:

| EC50 [µM] | SMILES |
| --- | --- |
| < 0.5 | CC(C)Cc1cn(CCN(C)S(=O)(=O)N(C)C)c2ncc(-c3ccncc3)cc12 [Example 125, dimethyl[methyl({2-[3-(2-methylpropyl)-5-(pyridin-4-yl)-1H-pyrrolo[2,3-b]pyridin-1-yl]ethyl})sulfamoyl]amine] |
| 0.5 to 3 | CC(C)Cc1cn(CCN(C)S(=O)(=O)C2CC2)c2ncc(-c3ccncc3)cc12 [Example 126, N-(2-(3-isobutyl-5-(pyridin-4-yl)-1H-pyrrolo[2,3-b]pyridin-1-yl)ethyl)-N-methylcyclopropanesulfonamide] |
| 0.5 to 3 | CN(C)S(=O)(=O)N(C)CCc1cn(C)c2cc(-c3ccncc3)ccc12 [Example 127, N′-{2-[6-(pyridin-4-yl)-1-methyl-1H-indol-3-yl]ethyl}-N′-methyl-N,N-dimethylsulfuric diamide] |
| 0.5 to 3 | CN(C)S(=O)(=O)NCCc1cn(C)c2cc(-c3ccncc3)ccc12 [Example 128, N′-{2-[6-(pyridin-4-yl)-1-methyl-1H-indol-3-yl]ethyl}-N,N-dimethylsulfuric diamide] |
| 0.5 to 3 | CC(C)n1cc(CCNS(=O)(=O)N(C)C)c2ccc(-c3ccncc3)cc21 [Example 129, N′-{2-[6-(pyridin-4-yl)-1-isopropyl-1H-indol-3-yl]ethyl}-N,N-dimethylsulfuric diamide] |
| 0.5 to 3 | CCN(CCc1cn(CC)c2cc(-c3ccncc3)ccc12)S(=O)(=O)N(C)C [Example 133, N′-{2-[6-(pyridin-4-yl)-1-ethyl-1H-indol-3-yl]ethyl}-N′-ethyl-N,N-dimethylsulfuric diamide] |
| < 0.5 | CC(C)Cn1cc(CCNS(=O)(=O)N(C)C)c2cc(Br)ccc21 [Example 135, ({2-[5-bromo-1-(2-methylpropyl)-1H-indol-3-yl]ethyl}sulfamoyl)dimethylamine] |
| 0.5 to 3 | CC(C)Cn1cc(CCNS(=O)(=O)N(C)C)c2c(Br)cccc21 [Example 136, ({2-[4-bromo-1-(2-methylpropyl)-1H-indol-3-yl]ethyl}sulfamoyl)dimethylamine] |
| < 0.5 | CN(C)S(=O)(=O)NCCc1cn(Cc2cccc(Cl)c2)c2cc(-c3ccncc3)ccc12 [Example 141, N-{2-[6-(pyridin-4-yl)-1-(3-chlorobenzyl)-1H-indol-3-yl]ethyl}-N,N-dimethylsulfuric diamide] |
| 0.5 to 3 | CN(C)S(=O)(=O)NCCc1cn(Cc2cccc(C(F)(F)F)c2)c2cc(-c3ccncc3)ccc12 [Example 142, N-{2-[6-(pyridin-4-yl)-1-(3-trifluoromethylbenzyl)-1H-indol-3-yl]ethyl}-N,N-dimethyl-sulfuric diamide] |
| < 0.5 | CN(C)S(=O)(=O)NCCc1cn(Cc2cccc(Br)c2)c2cc(-c3ccncc3)ccc12 [Example 143, N-{2-[6-(pyridin-4-yl)-1-(3-bromobenzyl)-1H-indol-3-yl]ethyl}-N,N-dimethylsulfuric diamide] |
| < 0.5 | CN(C)S(=O)(=O)NCCc1cn(Cc2cccc(F)c2)c2cc(-c3ccncc3)ccc12 [Example 144, N-{2-[6-(pyridin-4-yl)-1-(3-fluorobenzyl)-1H-indol-3-yl]ethyl}-N,N-dimethylsulfuric diamide] |
| 0.5 to 3 | CN(C)S(=O)(=O)NCCc1cn(Cc2ccc(F)cc2)c2cc(-c3ccncc3)ccc12 [Example 146, N-{2-[6-(pyridin-4-yl)-1-(4-fluorobenzyl)-1H-indol-3-yl]ethyl}-N,N-dimethylsulfuric diamide] |
| 0.5 to 3 | COc1cccc(Cn2cc(CCNS(=O)(=O)N(C)C)c3ccc(-c4ccncc4)cc32)c1 [Example 147, N-{2-[6-(pyridin-4-yl)-1-(3-methoxybenzyl)-1H-indol-3-yl]ethyl}-N,N-dimethylsulfuric diamide] |
| 0.5 to 3 | CN(C)S(=O)(=O)NCCc1cn(Cc2cccc([N+](=O)[O-])c2)c2cc(-c3ccncc3)ccc12 [Example 148, N-{2-[6-(pyridin-4-yl)-1-(3-nitrobenzyl)-1H-indol-3-yl]ethyl}-N,N-dimethylsulfuric diamide] |
| < 0.5 | CC(C)Cn1cc(CCNS(=O)(=O)N(C)C)c2cc(F)c(Br)cc21 [Example 168, ({2-[6-bromo-5-fluoro-1-(2-methylpropyl)-1H-indol-3-yl]ethyl}sulfamoyl)dimethylamine] |
